Measurements taken from publication PMC7409196, “Investigating the Effect of Esterification on Retinal Pigment Epithelial Uptake Using Rhodamine B Derivatives” (Translational Vision Science & Technology, 2020).

Experiments:
[1] = test system: isolated mitochondria from ARPE-19-nic cells; test: Quantification of dye amounts in isolated mitochondria; assay type: cell-based, human; conditions: 100 nM, 30 minutes; t-test P < 0.0001
[2] = Stability of dyes in media (HPLC); assay type: in vitro ADME; conditions: 100 nM in MEM-Nic + 1% FBS, 37°C, HPLC at 0 and 2 hours
Method: Fresh 100 nM RBBE solutions were prepared in MEM-Nic + 1% FBS with 0.2% Tween20. HPLC chromatograms were recorded immediately after making solutions and after incubation at 37°C for 2 hours to determine stability of the ester linkage in media.

ARPE-19-nic cells [3] = test: De-esterification in cells (HPLC of cell extracts); assay type: in vitro ADME, human; conditions: confluent cells treated with 100 nM for 30 minutes and 2 hours
Method: For cell work, confluent ARPE-19-nic cells were treated with 100 nM dye solutions for 30 minutes and 2 hours at 37°C, 5% CO2 in a 12-well plate. After washing the cells with PBS three times, cells were extracted using cell scrappers with the aid of methanol. The cell suspension in methanol was sonicated in a water bath for 5 minutes and was centrifuged at 16,000 g for 15 minutes. The supernatant was transferred to an HPLC vial and methanol was evaporated under a stream of nitrogen. The sample was resuspended in 40 µL of methanol before injecting into the HPLC system. Twenty microliters of the samples were injected with an autosampler. Separation was conducted by 1.1 mL/min isocratic elution with a methanol (80%) and 10 mM sodium phosphate buffer (pH 5.8, 20%) mobile phase on a 250 × 4.6-mm (5 µm) C18 column (Pinnacle II; Restek, Bellefonte, PA) maintained at 40°C. The samples were monitored at an emission wavelength of 580 nm (λex = 550 nm) using a FLD detector and analyzed with Agilent Chemstation software.

ARPE-19-nic cells [4] = test: Co-localization with Mito-GFP (confocal and high-resolution live cell imaging); assay type: cell-based, human; conditions: 25 nM, 30 minutes; for cell penetration and association with mitochondria, high-resolution airy scan imaging: live cells
Method: ARPE-19-nic cells were seeded at 1.5 × 10^5 cells per well density in 8-well Millicell EZ slides with MEM-Nic + 1% FBS. After 24 hours (60%–70% confluency), cells were transfected with CellLight Mitochondria-GFP using manufacturer's recommended protocol. For co-localization experiments carried out at subconfluent conditions, media containing CellLight Mito-GFP were removed, washed with DPBS and cells were treated with 25 nM dye solutions prepared in MEM-Nic + 1% FBS at 37°C, 5% CO2. After 30 minutes, media containing dye solution was removed and cells were washed three times with DPBS. Cells were mounted with DPBS for confocal laser scanning microscope imaging. An 63× oil lens was used to image cells in green and red channels. For experiments carried out at confluent conditions, transfection was carried out at 60% to 70% confluency and cells were grown to 100% confluency. A 20× lens was used to generate images to compare staining efficiencies.
To analyze RBBE and its association with mitochondria, high-resolution live cell imaging was conducted using a Zeiss LSM880 inverted confocal microscope equipped with a GaAsP detector. All the images were obtained by using a 63× oil objective (30°C oil) in three channels (blue, green, and red) at room temperature. ARPE-19-nic cells were grown in Lab-Tek II chambered no 1.5 German coverslip system for 24 hours before treating with CellLight Mito-GFP overnight followed by a 30-minute treatment of 25 nM RBBE in growth media. After treating the cells with RBBE, cells were washed twice with PBS and nuclei were stained employing a Hoechst stain (1/2000 diluted from a 10 mg/mL stock solution in media) for 10 minutes at room temperature. Subsequently cells were washed twice with PBS and cells were imaged in phenol red free CO2 independent Leibovitz's (1×) media.

ARPE-19-nic cells [5] = test: Accumulation experiment with repeated dye additions; assay type: cell-based, human; conditions: 25 nM added 1×, 2× or 3×, 2 hours each
Method: Black clear bottomed Costar 96-well plates were pretreated with 0.039 mg/mL collagen I solution prepared in sterilized deionized water (50 µL per well) for 1 hour, aspirated and washed with 100 µL of DPBS. Confluent ARPE-19-nic cells were harvested and seeded at approximately 70,000 cells per well and grown until the cells reached 100% confluency. At the time of confluence (day 0), media were removed from the cells and treated with 100 µL of freshly made dye solutions in MEM-Nic + 1% FBS in amber Eppendorf tubes in dark. After the appropriate incubation time, cells were washed thrice with DPBS, lysed with Qiagen RLT buffer with 0.2% Tween20, and fluorescence was recorded at λex/ λem = 552 nm/558 nm. […] Extracellular levels were measured by transferring 75 µL of the media sitting on top of the cells to a new black, clear bottomed 96-well plate. To the transferred media, 25 µL of Qiagen RLT lysis buffer with 0.2% Tween20 were added and fluorescence was measured as mentioned elsewhere in this article. Intracellular amounts were determined by adding 100 µL of Qiagen RLT lysis buffer with 0.2% Tween20 to the cells that were washed thrice with DPBS. Fluorescence measurements were carried as described. […] After the incubation period, cells were washed three times with DPBS and fluorescence was measured from a plate reader. […]

ARPE-19-nic cells [6] = test: Cellular uptake: intracellular and extracellular fluorescence quantification; assay type: cell-based, human
Method: Black clear bottomed Costar 96-well plates were pretreated with 0.039 mg/mL collagen I solution prepared in sterilized deionized water (50 µL per well) for 1 hour, aspirated and washed with 100 µL of DPBS. Confluent ARPE-19-nic cells were harvested and seeded at approximately 70,000 cells per well and grown until the cells reached 100% confluency. At the time of confluence (day 0), media were removed from the cells and treated with 100 µL of freshly made dye solutions in MEM-Nic + 1% FBS in amber Eppendorf tubes in dark. […] To determine intracellular and extracellular dye levels, cells were treated with 25 nM dye solutions for 2 hours. Extracellular levels were measured by transferring 75 µL of the media sitting on top of the cells to a new black, clear bottomed 96-well plate. To the transferred media, 25 µL of Qiagen RLT lysis buffer with 0.2% Tween20 were added and fluorescence was measured as mentioned elsewhere in this article. Intracellular amounts were determined by adding 100 µL of Qiagen RLT lysis buffer with 0.2% Tween20 to the cells that were washed thrice with DPBS. Fluorescence measurements were carried as described. For accumulation experiments, freshly prepared 25 nM dye solutions were added to cells multiple times (1×, 2×, or 3×) and incubated for 2 hours after each addition, removing media before each addition. After the incubation period, cells were washed three times with DPBS and fluorescence was measured from a plate reader. For retention experiments, cells were treated with 25 nM dye solutions for 2 hours at 37°C, 5% CO2, and fresh media was added every 24 hours after the removal of the dye solution.

CCCCOC(=O)c1ccccc1-c1c2ccc(=[N+](CC)CC)cc-2oc2cc(N(CC)CC)ccc12 [RBBE, Rhodamine B Butyl Ester]
fluorescence from isolated mitochondria compared with RB-treated cells [1]: increased fluorescence activity
stability of the ester in media [2]: stable in media up to 2 hours
conversion into the parent form (de-esterification) inside cells (ARPE-19-nic cells [3]): did not convert into its parent form within 2 hours
cell penetration and association with mitochondria, high-resolution airy scan imaging (ARPE-19-nic cells [4]): able to effectively penetrate into the cells and associated with mitochondria

rhodamine B [RB]
intracellular level after multiple doses (accumulation) (ARPE-19-nic cells [5]): showed no accumulation
co-localization with Mito-GFP labelled mitochondria (ARPE-19-nic cells [4]; confocal laser scanning microscopy): not detected within the cells
cell penetration and association with mitochondria, high-resolution airy scan imaging (ARPE-19-nic cells [4]): did not observe any RB
cell permeability (ARPE-19-nic cells [6]; 25 nM): cell impermeable
intracellular versus extracellular location of dye (ARPE-19-nic cells [6]; 25 nM, 2 hours, fluorescence): primarily located in the extracellular space
cell penetration after 24 hours incubation (ARPE-19-nic cells [6]; 24 hours incubation): not able to penetrate into the cells
